What was measured:
[1] = target: Tyrosine-protein kinase Fyn (Homo sapiens, UniProt P06241); experiment: biochemical; assay type: cell-based, Insect cells;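 also: enzymatic inhibition of Fyn kinase activity measured with Poly(Glu:Tyr) as the phosphorylation substrate; in other assays of this panel Not Active means under 50% inhibition at 10 µM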
[2] = DRUGMATRIX: Potassium Channel [KATP] radioligand binding (ligand: [3H] Glyburide); assay type: cell membranes, Membrane; conditions: hit-t15; Not Active = under 50% inhibition at 10 µM
[3] = target: Delta-type opioid receptor (Homo sapiens, UniProt P41143); assay type: cell membranes, HEK293, Membrane; also: in other assays of this panel Not Active means under 50% inhibition at 10 µM
[4] = target: T1, C-X-C chemokine receptor type 2 (Homo sapiens, UniProt P25025); assay type: cell membranes, Membrane; conditions: cho-k1; also: in other assays of this panel Not Active means under 50% inhibition at 10 µM
T1 sequence (P25025 whole entry): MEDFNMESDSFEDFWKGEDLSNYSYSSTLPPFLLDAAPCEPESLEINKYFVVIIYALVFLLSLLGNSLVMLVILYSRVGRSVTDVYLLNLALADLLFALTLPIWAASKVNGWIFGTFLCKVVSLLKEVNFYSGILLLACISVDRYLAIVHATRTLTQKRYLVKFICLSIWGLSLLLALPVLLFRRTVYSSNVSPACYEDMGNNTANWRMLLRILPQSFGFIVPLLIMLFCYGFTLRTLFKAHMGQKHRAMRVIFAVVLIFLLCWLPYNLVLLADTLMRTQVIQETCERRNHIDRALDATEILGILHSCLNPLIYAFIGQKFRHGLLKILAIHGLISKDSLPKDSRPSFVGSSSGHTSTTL

[5] = target: C-C chemokine receptor type 2 (Homo sapiens, UniProt P41597); assay type: cell membranes, CHO-K1, Membrane; conditions: cho-k1; also: in other assays of this panel Not Active means under 50% inhibition at 10 µM
[6] = target: T2, Type-2 angiotensin II receptor (Homo sapiens, UniProt P50052); assay type: cell-based; conditions: cho-k1; also: in other assays of this panel Not Active means under 50% inhibition at 10 µM
T2 sequence (P50052 whole entry): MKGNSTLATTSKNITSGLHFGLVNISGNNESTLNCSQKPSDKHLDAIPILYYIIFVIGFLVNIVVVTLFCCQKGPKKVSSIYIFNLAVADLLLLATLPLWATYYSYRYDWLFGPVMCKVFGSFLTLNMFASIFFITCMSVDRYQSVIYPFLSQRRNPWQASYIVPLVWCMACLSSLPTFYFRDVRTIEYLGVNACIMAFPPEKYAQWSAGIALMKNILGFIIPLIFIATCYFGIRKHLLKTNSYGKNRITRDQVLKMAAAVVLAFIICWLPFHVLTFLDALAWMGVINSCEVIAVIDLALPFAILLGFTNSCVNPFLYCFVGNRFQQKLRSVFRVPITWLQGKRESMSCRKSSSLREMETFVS

Substance-K receptor = target: T3, Substance-K receptor (Homo sapiens, UniProt P21452); assay type: cell membranes, CHO, Membrane; conditions: for Ki: read-out: Ki
T3 sequence (P21452 whole entry): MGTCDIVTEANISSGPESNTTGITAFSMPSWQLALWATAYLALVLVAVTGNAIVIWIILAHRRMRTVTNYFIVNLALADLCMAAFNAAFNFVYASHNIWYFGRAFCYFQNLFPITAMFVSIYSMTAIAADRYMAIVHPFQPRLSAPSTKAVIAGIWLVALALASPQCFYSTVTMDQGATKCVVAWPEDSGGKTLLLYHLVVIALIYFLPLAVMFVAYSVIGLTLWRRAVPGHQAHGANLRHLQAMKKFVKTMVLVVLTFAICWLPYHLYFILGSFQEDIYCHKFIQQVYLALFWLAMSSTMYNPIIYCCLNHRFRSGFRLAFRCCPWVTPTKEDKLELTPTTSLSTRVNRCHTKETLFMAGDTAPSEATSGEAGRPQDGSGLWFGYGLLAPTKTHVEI

[7] = target: Matrix metalloproteinase-9 (Homo sapiens, UniProt P14780); experiment: biochemical; assay type: cell-based
[8] = target: T4, Neuropeptide Y receptor type 1 (Homo sapiens, UniProt P25929); assay type: cell membranes, Membrane; conditions: sk-n-mc; also: in other assays of this panel Not Active means under 50% inhibition at 10 µM
T4 sequence (P25929 whole entry): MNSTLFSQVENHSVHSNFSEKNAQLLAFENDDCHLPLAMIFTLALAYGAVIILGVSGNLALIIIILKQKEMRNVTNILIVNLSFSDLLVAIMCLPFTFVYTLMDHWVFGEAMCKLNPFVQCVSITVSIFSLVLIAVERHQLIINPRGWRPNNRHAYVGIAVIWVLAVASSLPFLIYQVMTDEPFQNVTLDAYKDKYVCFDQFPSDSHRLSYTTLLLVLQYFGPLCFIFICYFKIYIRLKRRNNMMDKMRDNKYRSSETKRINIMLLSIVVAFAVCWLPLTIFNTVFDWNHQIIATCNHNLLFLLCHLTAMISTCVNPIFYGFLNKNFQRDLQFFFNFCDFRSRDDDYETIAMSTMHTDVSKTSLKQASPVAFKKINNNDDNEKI

Endothelin-1 receptor = target: T5, Endothelin-1 receptor (Homo sapiens, UniProt P25101); assay type: cell membranes, Membrane; conditions: cho-k1; also: in other assays of this panel Not Active means under 50% inhibition at 10 µM
T5 sequence (P25101 whole entry): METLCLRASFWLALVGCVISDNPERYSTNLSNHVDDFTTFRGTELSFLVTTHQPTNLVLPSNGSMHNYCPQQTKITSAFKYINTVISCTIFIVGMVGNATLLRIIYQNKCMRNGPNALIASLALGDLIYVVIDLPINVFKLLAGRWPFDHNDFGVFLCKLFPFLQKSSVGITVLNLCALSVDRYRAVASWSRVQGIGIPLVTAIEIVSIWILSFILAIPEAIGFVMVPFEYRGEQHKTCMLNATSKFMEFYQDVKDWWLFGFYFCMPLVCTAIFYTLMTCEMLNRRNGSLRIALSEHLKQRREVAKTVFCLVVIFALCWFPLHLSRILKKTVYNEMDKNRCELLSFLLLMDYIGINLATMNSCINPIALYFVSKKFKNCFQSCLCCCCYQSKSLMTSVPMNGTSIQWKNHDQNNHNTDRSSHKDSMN

Chain of Tyrosine-protein kinase Fyn (P06241 whole entry): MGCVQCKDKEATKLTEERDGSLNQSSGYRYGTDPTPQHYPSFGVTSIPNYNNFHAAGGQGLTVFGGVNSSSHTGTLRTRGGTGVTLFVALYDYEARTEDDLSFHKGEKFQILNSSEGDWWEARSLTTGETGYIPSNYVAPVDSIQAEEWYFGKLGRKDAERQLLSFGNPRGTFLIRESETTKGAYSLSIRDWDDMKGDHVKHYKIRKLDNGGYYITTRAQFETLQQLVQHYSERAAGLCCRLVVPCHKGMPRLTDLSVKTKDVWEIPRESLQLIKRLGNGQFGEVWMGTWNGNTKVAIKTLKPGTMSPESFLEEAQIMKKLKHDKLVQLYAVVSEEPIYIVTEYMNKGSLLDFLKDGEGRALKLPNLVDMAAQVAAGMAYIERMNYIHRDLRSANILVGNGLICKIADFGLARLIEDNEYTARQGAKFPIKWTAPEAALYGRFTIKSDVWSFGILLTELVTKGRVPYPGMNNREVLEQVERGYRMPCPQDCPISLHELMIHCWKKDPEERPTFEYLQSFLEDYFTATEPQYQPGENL
Chain of Matrix metalloproteinase-9 (P14780 whole entry): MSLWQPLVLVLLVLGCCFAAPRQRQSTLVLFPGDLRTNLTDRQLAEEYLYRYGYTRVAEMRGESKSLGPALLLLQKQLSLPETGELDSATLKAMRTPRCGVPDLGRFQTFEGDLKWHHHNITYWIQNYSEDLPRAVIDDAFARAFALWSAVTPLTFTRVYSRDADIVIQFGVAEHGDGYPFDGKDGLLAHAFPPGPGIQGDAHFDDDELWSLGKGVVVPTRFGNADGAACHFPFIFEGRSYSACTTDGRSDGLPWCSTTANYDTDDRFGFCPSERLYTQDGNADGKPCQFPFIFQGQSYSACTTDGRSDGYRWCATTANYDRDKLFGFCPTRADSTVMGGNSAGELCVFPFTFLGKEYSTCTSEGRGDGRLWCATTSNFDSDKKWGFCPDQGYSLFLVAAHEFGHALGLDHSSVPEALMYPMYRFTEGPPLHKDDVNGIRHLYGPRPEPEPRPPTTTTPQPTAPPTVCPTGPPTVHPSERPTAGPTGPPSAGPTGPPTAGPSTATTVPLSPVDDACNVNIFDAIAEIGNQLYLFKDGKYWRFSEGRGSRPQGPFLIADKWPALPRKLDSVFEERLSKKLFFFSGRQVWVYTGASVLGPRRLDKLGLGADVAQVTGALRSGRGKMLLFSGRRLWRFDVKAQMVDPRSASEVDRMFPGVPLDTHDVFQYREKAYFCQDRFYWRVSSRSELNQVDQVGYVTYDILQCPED
Chain of Delta-type opioid receptor (P41143 whole entry): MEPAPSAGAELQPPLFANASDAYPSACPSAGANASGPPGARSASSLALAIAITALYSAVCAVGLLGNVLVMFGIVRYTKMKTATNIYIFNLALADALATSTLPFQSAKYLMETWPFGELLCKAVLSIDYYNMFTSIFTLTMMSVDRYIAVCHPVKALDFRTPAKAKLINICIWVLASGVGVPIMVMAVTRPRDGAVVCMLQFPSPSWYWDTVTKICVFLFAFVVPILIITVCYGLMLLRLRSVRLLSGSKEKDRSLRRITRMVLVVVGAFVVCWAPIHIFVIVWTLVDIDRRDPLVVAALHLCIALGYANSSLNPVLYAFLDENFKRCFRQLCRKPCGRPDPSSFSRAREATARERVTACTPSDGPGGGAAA
Chain of C-C chemokine receptor type 2 (P41597 whole entry): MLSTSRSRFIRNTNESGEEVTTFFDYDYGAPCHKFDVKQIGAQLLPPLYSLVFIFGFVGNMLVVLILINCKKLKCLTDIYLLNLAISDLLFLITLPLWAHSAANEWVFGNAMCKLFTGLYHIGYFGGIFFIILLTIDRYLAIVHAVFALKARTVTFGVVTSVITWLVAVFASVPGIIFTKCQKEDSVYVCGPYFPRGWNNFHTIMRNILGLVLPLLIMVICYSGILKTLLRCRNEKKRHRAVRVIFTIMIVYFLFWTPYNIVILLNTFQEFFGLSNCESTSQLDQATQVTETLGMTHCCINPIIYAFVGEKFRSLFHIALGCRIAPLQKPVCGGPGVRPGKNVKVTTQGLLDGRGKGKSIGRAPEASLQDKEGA

SMILES	IC50 ([1]; insect cells)	IC50 [2]	Ki [2]	IC50 ([3]; hek293)	IC50 [4]	IC50 [5]	IC50 [6]	IC50 (Substance-K receptor; cho)	IC50 [7]	IC50 [8]	IC50 (Endothelin-1 receptor)	Ki [5]	Ki (Endothelin-1 receptor)	IC50 ([3]; read-out: IC50) [µM]	Ki ([3]; read-out: Ki) [µM]	IC50 (Substance-K receptor; read-out: IC50) [µM]	Ki (Substance-K receptor) [µM]	IC50 ([1]; read-out: IC50) [µM]
N[C@H](CSC(=S)NCc1ccccc1)C(=O)O	Not Active	Not Active	Not Active	Not Active	Not Active	Not Active	Not Active	Not Active	Not Active	Not Active	Not Active							
Cc1cc(C)nc(NS(=O)(=O)c2ccc(N)cc2)n1 [SULFAMETHAZINE]	Not Active	Not Active	Not Active	Not Active	Not Active		Not Active	Not Active	Not Active	Not Active	Not Active	Not Active						
Cc1cccc(Nc2ccncc2S(=O)(=O)NC(=O)NC(C)C)c1 [TORSEMIDE]	Not Active	Not Active	Not Active	Not Active	Not Active	Not Active	Not Active	Not Active	Not Active	Not Active	Not Active							
O=C1CCC(N2C(=O)c3ccccc3C2=O)C(=O)N1 (stereo not drawn) [THALIDOMIDE]	Not Active	Not Active	Not Active	Not Active	Not Active	Not Active	Not Active	Not Active	Not Active	Not Active	Not Active							
CC(C)CC(N(C)C)C1(c2ccc(Cl)cc2)CCC1 (stereo not drawn) [SIBUTRAMINE]	Not Active	Not Active	Not Active	Not Active	Not Active	Not Active	Not Active	Not Active	Not Active	Not Active	Not Active							
[H]/N=C(/N)N[C@H]1[C@H](O)[C@@H](O)[C@H](O[C@@H]2O[C@@H](C)[C@](O)(C=O)[C@H]2O[C@@H]2O[C@@H](CO)[C@H](O)[C@@H](O)[C@@H]2NC)[C@@H](N/C(N)=N\[H])[C@@H]1O [STREPTOMYCIN]	Not Active	Not Active	Not Active	Not Active	Not Active	Not Active	Not Active	Not Active	Not Active	Not Active	Not Active							
CC(C)C[C@H](NC(=O)[C@@H](O)[C@H](N)Cc1ccccc1)C(=O)O [UBENIMEX]	Not Active	Not Active	Not Active	Not Active	Not Active	Not Active	Not Active	Not Active	Not Active	Not Active	Not Active							
CC(C)NCC(O)COc1cccc2ccccc12 (stereo not drawn) [PROPRANOLOL]	Not Active			Not Active	Not Active	Not Active	Not Active	Not Active	Not Active	Not Active	Not Active							
Cc1onc(-c2ccccc2)c1-c1ccc(S(N)(=O)=O)cc1 [VALDECOXIB]	Not Active	Not Active	Not Active	Not Active	Not Active	Not Active	Not Active	Not Active	Not Active	Not Active			Not Active					
CC(=O)N1CCN(c2ccc(OCC3COC(Cn4ccnc4)(c4ccc(Cl)cc4Cl)O3)cc2)CC1 (stereo not drawn) [KETOCONAZOLE]	Not Active				Not Active	Not Active	Not Active		Not Active	Not Active	Not Active			12.8	4.51	17.2	5.75	
O=C(c1ccc(OCCN2CCCCC2)cc1)c1c(-c2ccc(O)cc2)sc2cc(O)ccc12 [RALOXIFENE]		Not Active	Not Active		Not Active	Not Active	Not Active		Not Active	Not Active	Not Active					3.99	1.33	3.67
CC/C(=C(/CC)c1ccc(O)cc1)c1ccc(O)cc1 [DIETHYLSTILBESTROL]					Not Active	Not Active	Not Active		Not Active	Not Active	Not Active					9.55	3.18	14.2
C=CCN1CC[C@]23c4c5ccc(O)c4O[C@H]2C(=O)CC[C@@]3(O)[C@H]1C5 [NALOXONE]	Not Active				Not Active	Not Active	Not Active	Not Active	Not Active	Not Active	Not Active							
Clc1ccc2c(c1)C(N1CCNCC1)=Nc1ccccc1O2 [AMOXAPINE]	Not Active			Not Active	Not Active	Not Active	Not Active	Not Active	Not Active	Not Active	Not Active							
CC(C)(C)c1ccc(C(O)CCCN2CCC(C(O)(c3ccccc3)c3ccccc3)CC2)cc1 (stereo not drawn) [TERFENADINE]				Not Active	Not Active	Not Active	Not Active		Not Active	Not Active	Not Active					2.68	0.892	6.12
CC(C)c1nc(CN(C)C(=O)N[C@H](C(=O)N[C@@H](Cc2ccccc2)C[C@H](O)[C@H](Cc2ccccc2)NC(=O)OCc2cncs2)C(C)C)cs1 [RITONAVIR]	Not Active	Not Active	Not Active	Not Active	Not Active	Not Active	Not Active		Not Active	Not Active	Not Active							
CN1CCC(=C2c3ccccc3C=Cc3ccccc32)CC1 [CYPROHEPTADINE]	Not Active			Not Active	Not Active	Not Active	Not Active	Not Active	Not Active	Not Active	Not Active							
COc1cc2c(c(OC)c1OC)-c1ccc(OC)c(=O)cc1[C@@H](NC(C)=O)CC2 [COLCHICINE]	Not Active			Not Active	Not Active	Not Active	Not Active	Not Active	Not Active	Not Active	Not Active							

From ChEMBL document CHEMBL1909046, “DrugMatrix in vitro pharmacology data”
